Data as given in patent US10724099B2, “Multiplex methods to assay mixed cell populations simultaneously” (The Broad Institute, Inc., priority 2012, dated 2020).

Experiments:
HCT-116 cells [1] = assay: DNA content by propidium iodide flow cytometry; assay type: cell-based; settings: 10 μM, 24 hours or 48 hours
Procedure: In addition, HCT-116 cells were treated with 10 μM of DMSO, or the Aurora Kinase Inhibitors barasertib, GSK1070916, MLN8054, BRD-7880, or tozasertib. 24 hours or 48 hours following treatment, cells were stained with propidium iodide and DNA content per cell was assessed using a Becton Dickinson LSR II flow cytometer.

HCT-116 cells [2] = assay: Western blot phosphoserine 10-histone H3; assay type: cell-based; settings: 10 μM
Procedure: Finally, HCT-116 cells were treated with 10 μM of DMSO, barasertib, GSK1070916, MLN8054, BRD-7880, or tozasertib. Cells lysates were probed on Western blot using antibodies (diluted 1:1000) to histone H3 (Abcam cat. no. 24834), phosphoserine 10-histone H3 (Cell Signaling Technology cat no. 3377SS), aurora kinase B (Millipore cat. no. 04-1036), or beta-actin (Santa Cruz Biotechnology cat. no. sc-47778) and detected using a LI-COR Odyssey analyzer.

[3] = system: 25 barcoded lung adenocarcinoma cell lines; assay: PRISM, mixture of 25 barcoded lung adenocarcinoma cell lines; assay type: cell-based, human; settings: for viability relative to DMSO-treated control (relative inhibition profile): cell lines in mixture, 0-10 μM (puromycin 0-10 μg/ml), day 5
Procedure: PRISM detection was performed as follows. Genomic DNA from cell lysates was amplified by PCR using primers Biotin pLENTR4 (5′-Biotin-[…]-3′; SEQ ID NO:3) and pLENTF1 (5′-[…]-[…]-3′; SEQ ID NO:4). PCR product was hybridized to Luminex beads with covalently attached antisense barcodes, and streptavidin-phycoerythrin addition, washing, and detection on Luminex FlexMap machines was performed as previously described (Peck et al., Genome Biol 7, R61 (2006)). PCR without genomic DNA was hybridized with beads to serve as background control; signal for each bead was subtracted from each sample measurement. DMSO-treated cell mixtures were used as reference control for scaling of each cell line signal at the conclusion of each experiment (viability=100 for each cell line).
These lines were barcoded as described above, and equal numbers of cells of each cell lines were mixed together. Cell mixtures were plated in 384-well plates on day −1. On day 0, mixtures were challenged with compounds or vehicle, and on day 5 genomic DNA was harvested and barcodes quantitated. Barcode signal background was determined using beads hybridizing to PCR reactions lacking genomic DNA templates and was subtracted from all measurements. To account for different doubling times of cell lines and different baseline signals for each cell line, the barcode signal for each cell line was scaled to the signal of the vehicle-treated control at the end of the experiment (PRISM schema shown in FIG. 1A), so that the relative growth inhibition of each cell line was assessed.

[4] = system: 100 human cancer cell lines; assay: PRISM, 100 barcoded cancer cell lines in mixture; assay type: cell-based; settings: for reduction in cell viability in BRAF V600E mutant lines compared to BRAF wild-type lines: mixture, day 5
Procedure: PRISM detection was performed as follows. Genomic DNA from cell lysates was amplified by PCR using primers Biotin pLENTR4 (5′-Biotin-[sequence]-3′; SEQ ID NO:3) and pLENTF1 (5′-[sequence]-[sequence]-3′; SEQ ID NO:4). […] PCR without genomic DNA was hybridized with beads to serve as background control; signal for each bead was subtracted from each sample measurement. DMSO-treated cell mixtures were used as reference control for scaling of each cell line signal at the conclusion of each experiment (viability=100 for each cell line).
To investigate cancer vulnerabilities that are common in multiple cancer types and to examine the extent to which assaying cells in mixture may be complicated by cell-cell interactions, a panel of 100 barcoded cell lines was created comprising 18 different cancer types, and these were challenged in mixture with each of 43 anticancer compounds (including both targeted and general cytotoxic agents) in 8-point dose response. Each compound was represented by 3,200 functional measurements (100 cell lines×8 doses×4 replicates). The assays were performed as follows. Frozen mixtures of barcoded cell lines were thawed (day −2) and replated (day −1) into 384-well microtiter plates. On day 0, compounds suspended in DMSO were pinned into cultures to achieve final concentrations of 0.0012, 0.0049, 0.019, 0.078, 0.3125, 1.25, 5, or 20 μg ml-1. On day 5, cells were washed with phosphate-buffered saline and lysed for 60 minutes at 60° C. in 20 mM Tris-HCl (pH 8.4), 50 mM KCl, 0.45% IGEPAL CA-630 (Sigma cat. 18896), 0.45% Tween-20 (Sigma cat. P9416), and 10% proteinase K (Qiagen cat. 19133). Proteinase K was inactivated by a 15-minute incubation at 95° C.

[5] = system: 100 human cancer cell lines; assay: OPTICAL (Opera enumeration of nuclei), 100 cell lines grown individually; assay type: cell-based; settings: for reduction in cell viability in BRAF V600E mutant lines compared to BRAF wild-type lines: OPTICAL (Nuclei), individual lines, day 3
Text: (§1) To quantitatively compare the 100-cell line PRISM performance to traditional methods, PRISM was compared to the activity of 23 compounds across the same 100 cell lines grown individually, as recently reported (using either ATP content measurements using the CellTiterGlo (CTG), or direct enumeration of cell nuclei using an optical fluorescent imaging method (PerkinElmer Opera system (hereafter, OPTICAL)) and thus served as a gold standard against which PRISM could be compared (Barretina et al., Nature 483, 603 (Mar. 29, 2012)). The same parental cell lines were used in all three methods; in the PRISM method, a barcoded “daughter” line was generated from the common parental cell line. Compounds used in assays were replica-plated from the same source. The cell lines grown individually were assayed at day 3 following compound treatment, whereas the 100-cell line PRISM mixture was analyzed at day 5.
(§2) To compare the three methods for measuring cell viability, the AUC (Area Under the Curve, measured from the viability vs. logarithm of drug concentration curve) was calculated for each combination of compound and cell line and for each viability measurement method. The CTG and OPTICAL methods were generally correlated with Pearson R=0.801. CTG and PRISM correlated with R=0.663, and OPTICAL and PRISM correlated with R=0.720. […] To investigate whether particular cell lines or specific compounds were disproportionately responsible for divergent predictive results between PRISM and the other methods, we examined the ratio between […] or […]. […] In these rare cases, either the different assay conditions (5-day assay with PRISM, 3-day assay with OPTICAL and CTG) or the assay of cells in mixture might explain the discrepancy. Overall, however, PRISM appears to perform comparably to these other methods in global determinations of sensitivity to compounds in these 100 cell lines.

[6] = system: 100 human cancer cell lines; assay: CTG (CellTiterGlo ATP), 100 cell lines grown individually; assay type: cell-based; settings: for reduction in cell viability in BRAF V600E mutant lines compared to BRAF wild-type lines: CTG (ATP), individual lines, day 3
Text: as §1, §2

308 kinases = assay: Kinase activity profiling, Millipore KinaseProfiler; assay type: biochemical
[7] = system: 24 barcoded human lung adenocarcinoma cell lines; assay: In vivo PRISM, xenograft of 24 barcoded lung adenocarcinoma cell lines in NSG mice; settings: 50 mg/kg once daily by gavage for 16 days, vs vehicle
Text: The tumors were than resected, and the abundance of each cell line measured by PRISM.

`O=C(O)c1ccc(Nc2ncc3c(n2)-c2ccc(Cl)cc2C(c2c(F)cccc2F)=NC3)cc1` [MLN8054] was tested, and the “DNA content per cell” value (HCT-116 cells [1]) was “increased DNA content” and the “phosphorylation of serine 10 on histone H3” value (“phosphorylation” for short) (HCT-116 cells [2]) was “decrease phosphorylation of serine 10 on histone H3”.

In the case of `COc1ccc(C[C@H](N)C(=O)N[C@H]2[C@@H](O)[C@H](n3cnc4c(N(C)C)ncnc43)O[C@@H]2CO)cc1` [puromycin], the “viability relative to DMSO-treated control (relative inhibition profile)” value [3] is reported as “uniform cell death across the cell line mixture”.

With `Cn1cnc2c(F)c(Nc3ccc(Br)cc3Cl)c(C(=O)NOCCO)cc21` [AZD6244] the “reduction in cell viability in BRAF V600E mutant lines compared to BRAF wild-type lines” value (from here on “reduction in cell viability”) [4] was “only a trend towards this reduction”, the “reduction in cell viability” value [5] was “only a trend towards this reduction” and the “reduction in cell viability” value [6] was “significant reduction”.

For `Cc1cc(Nc2cc(N3CCN(C)CC3)nc(Sc3ccc(NC(=O)C4CC4)cc3)n2)[nH]n1` [tozasertib], the “significant inhibition (defined as activity<25% control) across 308 kinases” value (308 kinases) was “inhibited aurora kinases A, B, and C, in addition to several other kinases”, the “DNA content per cell” value (HCT-116 cells [1]) was “increased DNA content” and the “phosphorylation” value (HCT-116 cells [2]) was “decrease phosphorylation of serine 10 on histone H3”.

With `CCn1cc(-c2ccnc3[nH]c(-c4cccc(CN(C)C)c4)cc23)c(-c2ccc(NC(=O)N(C)C)cc2)n1` [GSK1070916] the “DNA content per cell” value (HCT-116 cells [1]) was “increased DNA content” and the “phosphorylation” value (HCT-116 cells [2]) was “decrease phosphorylation of serine 10 on histone H3”.

In the case of `CCCS(=O)(=O)Nc1ccc(F)c(C(=O)c2c[nH]c3ncc(Cl)cc23)c1F` [PLX4720], the “reduction in cell viability” value [4] is reported as “significant (two-tailed t-test, p<0.05) reductions in cell viability”, the “reduction in cell viability” value [5] is reported as “significant (two-tailed t-test, p<0.05) reductions in cell viability” and the “reduction in cell viability” value [6] is reported as “significant (two-tailed t-test, p<0.05) reductions in cell viability”.

With `C#Cc1cccc(Nc2ncnc3cc(OCCOC)c(OCCOC)cc23)c1` [erlotinib] the “sensitivity of EGFR-mutant lines compared to EGFR wild-type lines” value ([4]; did not reach statistical significance) was “trend towards increased sensitivity”, the “sensitivity of EGFR-mutant lines compared to EGFR wild-type lines” value ([5]; OPTICAL, did not reach statistical significance) was “trend towards increased sensitivity” and the “representation of the detectable 19 wt-EGFR lines” value [7] was “mostly unchanged or increased in representation”. The “sensitivity of EGFR-mutant lines compared to EGFR wild-type lines” value ([6]; CTG, did not reach statistical significance) was “trend towards increased sensitivity”, the “sensitivity of HCC2935 among the 4 EGFR-mutant lines in vitro” value ([3]; HCC2935, FIG. 1b) was “least sensitive” and the “viability relative to DMSO-treated control (relative inhibition profile)” value [3] was “selective and dose-dependent decrease of four EGFR-mutant cell lines”.

`COc1cc(N2CCC(N3CCN(C)CC3)CC2)ccc1Nc1ncc(Cl)c(Nc2ccccc2S(=O)(=O)C(C)C)n1` [NVP-TAE-684] was tested, and the “viability relative to DMSO-treated control (relative inhibition profile)” value [3] was “selective killing was observed of H3122, but not H2228”.

For `Cn1c(Nc2ccc(C(F)(F)F)cc2)nc2cc(Oc3ccnc(-c4ncc(C(F)(F)F)[nH]4)c3)ccc21` [RAF-265], the “reduction in cell viability” value [4] was “a similar reduction was seen only with PRISM”.

`CNC(=O)c1cc(Oc2ccc(NC(=O)Nc3ccc(Cl)c(C(F)(F)F)c3)cc2)ccn1` [sorafenib] was tested, and the “reduction in cell viability” value [4] was “did not demonstrate significant reductions”, the “reduction in cell viability” value [5] was “did not demonstrate significant reductions” and the “reduction in cell viability” value [6] was “did not demonstrate significant reductions”.
